According to patent publication US20250230148A1, “CRYSTAL OF FUSED TRICYCLIC DERIVATIVE OR PHARMACEUTICALLY ACCEPTABLE SALT THEREOF” (CHIA TAI TIANQING PHARMACEUTICAL GROUP CO., LTD., priority 2022, published 2025):

How the values were obtained:
[1] = Crystal stability under 94% RH, XRPD after placement; assay type: physicochemical; conditions: 94% RH at room temperature for 1 to 2 weeks
Description: • Instrument model: X' Pert3. • Method: taking a sample of about 10 to 20 mg for XRPD analysis. • Detailed XRPD parameters are as follows: • X-ray source: Cu, kα (Kα1=1.540598 Δ, Kα2=1.544426 Δ, Kα2/Kα1 intensity ratio: 0.5) • Tube voltage: 45 kV, tube current: 40 mA • Divergence slit: fixed ⅛° • First seller slit: 0.04 rad, Second soller slit: 0.04 rad • Receiving slit: none, Anti-scatter slit: 7.5 mm • Measurement time: 5 min • scan range: 3 to 40° • Step width angle: 0.0263° • Step length: 46.665 seconds • Rotation speed of sample plate: 60 rpm
The crystal form E of the compound of formula (I) was placed under 94% RH at room temperature for 1 to 2 weeks and then subjected to XRPD testing to evaluate its solid stability in the high humidity environment.

[2] = molecular target: M2 receptor (Homo sapiens (Human), UniProt P08172); experiment: M2 receptor affinity test (3H-NMS competition); assay type: binding; conditions: M2 receptor membrane protein, 0.2 nM 3H-NMS
Chain of M2 receptor (P08172 whole entry): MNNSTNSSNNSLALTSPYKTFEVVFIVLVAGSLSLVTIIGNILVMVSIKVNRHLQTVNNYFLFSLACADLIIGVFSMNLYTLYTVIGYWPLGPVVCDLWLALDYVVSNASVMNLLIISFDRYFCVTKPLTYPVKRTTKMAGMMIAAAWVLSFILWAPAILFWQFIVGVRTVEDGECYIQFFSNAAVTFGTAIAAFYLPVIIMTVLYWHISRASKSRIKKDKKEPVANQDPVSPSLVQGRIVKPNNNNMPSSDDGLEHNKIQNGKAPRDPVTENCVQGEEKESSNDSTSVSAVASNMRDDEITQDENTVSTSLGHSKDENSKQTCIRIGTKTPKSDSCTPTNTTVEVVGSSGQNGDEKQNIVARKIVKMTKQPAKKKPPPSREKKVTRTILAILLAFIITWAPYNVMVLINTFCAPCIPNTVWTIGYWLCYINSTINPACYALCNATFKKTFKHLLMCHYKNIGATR
Description: M2 receptor is a G protein-coupled receptor. In this experiment, the activity of test compound against the M2 receptor in vitro was assayed by the competition of radioisotope labeled NMS and non-isotope labeled test compound for an M2 binding site.
The M2 receptor membrane protein was prepared at 100 μg/mL by Biology Department of WuXi AppTec, and compound was serially diluted in a 2.5-fold gradient in DMSO to obtain 10 concentrations. Radioisotope 3H-NMS was prepared at 0.2 nM in an assay buffer (10 mM HEPES, 1 mM MgCl2, pH 7.40). In formal testing, the experimental system comprising 1 μL of the test compound, 100 μL of M2 receptor membrane protein and 100 μL of radioisotope was shaken in a shaker at 300 RPM for 2 h at room temperature. A GF/C plate (Perkin Elmer, Cat No. 6055690) was prefoamed with 0.3% PEI, and the membrane proteins in the reaction solution were collected by filtration onto the GF/C plate. The signal values were read by a Perkin Elmer Microbeta2 instrument and the inhibition rate for each concentration point was shown as a percentage.

[3] = Dynamic vapor sorption (DVS) test; assay type: physicochemical
Description: • Instrument model: SMS DVS Advantage Dynamic Vapor Sorption Analyzer • Test conditions: Taking a sample (10 to 15 mg) and placing in a DVS sample dish for testing. • Detailed DVS parameters are as follows: • Temperature: 25° C. • Equilibration: dm/dt=0.01%/min (Minimum: 10 min, Maximum: 180 min) • Drying: drying 120 min under 0% RH • RH (%) test gradient: 10% • RH (%) test gradient range: 0% to 90% to 0%.
At the same time, a DVS test was performed on the crystal form C of the compound of formula (I).

[4] = Crystal stability under high humidity conditions, TGA after placement; assay type: physicochemical; conditions: 24 hours
Description: • Instrument model: TA Q5000/5500 Thermal Gravimetric Analyzer • Test method: Taking a sample (about 1 to 5 mg) and placing in a TGA aluminum dish for testing, and heating the sample from room temperature to 350° C. at a heating rate of 10° C./min under 10 mL/min N2 conditions.
The crystal form C of the compound of formula (I) was placed under different humidity conditions at room temperature and then tested by TGA to preliminarily evaluate its water content changes under different humidity conditions.

CN(CCCn1nnc2cc(CNC[C@H](O)c3ccc(O)c4[nH]c(=O)ccc34)c3c(c21)CCC3)[C@H]1CC[C@H](OC(=O)C(O)(c2cccs2)c2cccs2)CC1 [listing 1 of 3 here]
crystal form after placement (XRPD) [1]: remained unchanged

CN(CCCn1nnc2cc(CNC[C@H](O)c3ccc(O)c4[nH]c(=O)ccc34)c3c(c21)CCC3)[C@H]1CC[C@H](OC(=O)C(O)(c2cccs2)c2cccs2)CC1 [listing 2 of 3 here]
IC50 [2]: 0.062 nM

CN(CCCn1nnc2cc(CNC[C@H](O)c3ccc(O)c4[nH]c(=O)ccc34)c3c(c21)CCC3)[C@H]1CC[C@H](OC(=O)C(O)(c2cccs2)c2cccs2)CC1 [listing 3 of 3 here]
moisture adsorption ([3]; 25° C./80% RH): 7.84% | crystal form after the DVS test (XRPD) ([3]; XRPD before and after DVS test): remained unchanged | TGA weight loss (%, 150° C) ([4]; ~81% RH (saturated potassium bromide solution)/room temperature): 10.4% | TGA weight loss (%, 150° C) ([4]; ~94% RH (saturated potassium nitrate solution)/room temperature): 9.9%
